The results in this text go back to publication PMC9511441, “Semisynthetic teicoplanin derivatives with dual antimicrobial activity against SARS-CoV-2 and multiresistant bacteria” (Scientific Reports, 2022).

Like-named read-outs stand apart in the source and are kept apart here.

Assay [1] concerns SARS-CoV-2 pseudovirus. The assay can be described thus: microbe, parasite or virus in culture. The format is cell-based. As to conditions: Vero cells, luciferase signal, mean ± SEM of 3 tests, read-out: EC50, inhibition of SARS-CoV-2 pseudovirus entry in Vero cells.
Assay [2] concerns SARS-CoV-2 pseudovirus. Put plainly: microbe, parasite or virus in culture. The class given is cell-based. Conditions: A549-AT cells (ACE2 and TMPRSS2), luciferase signal, mean ± SEM of 3 tests, read-out: EC50, inhibition of SARS-CoV-2 pseudovirus entry in A549-AT cells.
Where [3] appears, read: Severe acute respiratory syndrome-related coronavirus.

The term EC50 denotes the concentration at which the effect is half-maximal. As for `CN(C)C(=O)COC(=O)Cc1ccc(OC(=O)c2ccc(NC(=N)N)cc2)cc1` [Camostat, camostat, reference compound], the concentration giving a half-maximal response (EC50) in assay [1] (setting [3]) was > 20000 nM; in assay [2] (setting [3]) it was 490 ± 50 nM.

Consider `CCOC(=O)[C@H]1O[C@@H]1C(=O)N[C@@H](CC(C)C)C(=O)NCCC(C)C` [Compound E64d, reference compound], for which the figures for the EC50 in assay [1] and in assay [2] were 1300 ± 1200 nM and > 20000 nM, respectively.
